In assay [1] the target is T1, DPP-IV enzyme (Homo sapiens, UniProt P27487).
T1 construct: purchased Biovision (Milpitas, Calif., USA)
Briefly: In vitro DPP-IV inhibition assay (Biovision kit, fluorescence). Conditions: for DPP-4 enzyme inhibition activity, in words: SAR discussion; for IC50: read-out: IC50; for % Inhibition @ 100 nM: compound at 100 nM. In kind it is biochemical. Here is the method:
DPP-IV inhibition assay was conducted using a kit purchased from Biovision (Milpitas, Calif., USA). Briefly, DPP-IV enzyme was diluted with Tris buffer and pipetted 50 μl into glass mini-cells. […] Finally a volume of 25 μl of DPP-IV substrate was added into each tube. The fluorescence generated from hydrolysis of the substrate was read at Ex/Em=360/460 nm using Modulus® single tube multimode reader (Promega, USA). Baseline fluorescence was recorded before incubation (R1) and 20 min after incubation (R2).
The standard DPP-IV inhibitor drug sitagliptin employed as positive control. […] Sigmoidal concentration-response curves for DPP-IV % inhibition versus log concentration were plotted using Graphpad prism software, version 5.00 (GraphPad Software, Inc. La Jolla, Calif., USA).

Assay [2] deals with diabetic mice. Briefly: Oral glucose tolerance test (OGTT) after multiple doses (6 days) in diabetic mice. Conditions: for AUC % change from diabetic control / AUC Δ from diabetic control / Relative potency to vildagliptin / AUC of blood glucose in OGTT (X, mean): 50 mg/kg oral for 6 days; for Relative potency to vildagliptin: OGTT AUC; for AUC of blood glucose in OGTT (X, mean): glucose load 2 g/kg 2 h after 6th dose, AUC 0-120 min; for R.P. to Vildagliptin (6 Days): Table 6, relative potency, B.G. = blood glucose. The class given is in vivo. On the procedure:
(§1) The Biochemical and Research Ethical Committee of King Abulaziz University (Jeddah, Saudi Arabia), in accordance with the NIH guidelines, approved all procedures, and the animals received human care during the experimental period. Experiments were carried out using adult male Swiss albino mice (SWR), of 8-9 weeks age and 30-35 g weight. Animals were purchased from the animal house of the King Fahed Medical Research center (KFMRC), Jeddah, Saudi Arabia. Mice were kept at a constant temperature of 24-25° C. and were subjected to a controlled 12 h light-dark cycle; they had free access to water and pelleted diet ad libitum.
(§2) Nicotinamide (210 mg/kg b.w.), dissolved in saline, was injected intraperitoneally 15 min before the intraperitoneal injection of Streptozotocin (STZ) (Sigma, 180 mg/kg b.w.), which was freshly prepared in citrate buffer (pH 4.5). Control animals received both vehicles. During the experimental period, animals' food intake and body weight gain were monitored once a week.
(§3) On the same groups that received the single dose treatment, the tested compounds were given daily by oral gavage for six consecutive days. On day 6, the overnight fasted diabetic mice were pretreated with the 6th oral dose of the tested compounds. Two hours later, an oral glucose was loaded (2 g/kg/10 ml b.w.). Blood glucose levels were determined using the Accu-check Go®. Samples were collected just before drug administration (Fasting Blood glucose), then 2 h after drug treatment and before glucose administration. Samples collection was continued at 20, 40, 60 and 120 min intervals after glucose loading.

Assay [3] has as its system diabetic mice. Briefly: Fasting blood glucose of diabetic mice treated daily for 6 consecutive days. In kind it is in vivo. Conditions: 50 mg/kg oral daily. On the procedure:
as §1, §2, §3
The oral glucose tolerance test (OGTT) was performed over six days on diabetic mice. The glucose level was monitored daily (Table 3). The results were analyzed for activities after a single dose (Table 4) and after the 6th dose of the drug (Table 5).

The test system of assay [4] is diabetic mice. The experiment in a line: Oral glucose tolerance test (OGTT) after single dose in diabetic mice. The class given is in vivo. As to conditions: for R.P. to Vildagliptin (Single Dose): Table 6, relative potency, B.G. = blood glucose; for AUC of blood glucose in OGTT (X, mean): glucose load 2 g/kg 2 h later, AUC 0-120 min. Here is the method: as §1, §2
Oral glucose tolerance tests were performed in 14 h overnight fasted diabetic mice that were pretreated with a single oral dose of the tested compounds. […] The drugs were suspended in carboxymethyl cellulose (CMC)-Na (1% in distilled water) and the dosing volume was adjusted at 10 mL/kg body weight of the mouse. Then an oral glucose load was administered (2 g/kg) 2 h after drug treatment. Blood glucose levels were determined using the Accu-check Go® (Roche Diagnostics, Michigan, USA). Samples were collected just before drug administration (fasting blood glucose), then at 2 h after drug treatment (immediately before glucose loading). Then blood sample collection was continued at 20, 40, 60 and 120 min intervals after glucose loading.
Animals were distributed between three categories of groups. Each group is composed of six animals (n=6) […] as follows:
Category 1: One group of animals were 14 h overnight-fasted normoglycemic mice and vehicle-treated (1% CMC-Na) at a dose of 10 ml/kg.
Category 2: Another group of animals was overnight fasted diabetic mice received the vehicle (1% CMC-Na) at a dosing volume of 10 ml/kg and served as a negative control.
Category 4: Animals of these groups were overnight fasted diabetic mice received the tested compounds at a dose of 50 mg/kg in 1% CMC (volume of 10 ml/kg).

Setting [5] is: Table 2, head prints no unit, nM per Table 6.

Entries after “also recorded” stand apart in the source; their conditions may differ. Read-outs that look alike come from different tables or passages of the source. Marks after values point to notes of the source that are not given here. A value given as a limit tells only on which side of the number the result lay.

T1 sequence (P27487 whole entry, species assumed): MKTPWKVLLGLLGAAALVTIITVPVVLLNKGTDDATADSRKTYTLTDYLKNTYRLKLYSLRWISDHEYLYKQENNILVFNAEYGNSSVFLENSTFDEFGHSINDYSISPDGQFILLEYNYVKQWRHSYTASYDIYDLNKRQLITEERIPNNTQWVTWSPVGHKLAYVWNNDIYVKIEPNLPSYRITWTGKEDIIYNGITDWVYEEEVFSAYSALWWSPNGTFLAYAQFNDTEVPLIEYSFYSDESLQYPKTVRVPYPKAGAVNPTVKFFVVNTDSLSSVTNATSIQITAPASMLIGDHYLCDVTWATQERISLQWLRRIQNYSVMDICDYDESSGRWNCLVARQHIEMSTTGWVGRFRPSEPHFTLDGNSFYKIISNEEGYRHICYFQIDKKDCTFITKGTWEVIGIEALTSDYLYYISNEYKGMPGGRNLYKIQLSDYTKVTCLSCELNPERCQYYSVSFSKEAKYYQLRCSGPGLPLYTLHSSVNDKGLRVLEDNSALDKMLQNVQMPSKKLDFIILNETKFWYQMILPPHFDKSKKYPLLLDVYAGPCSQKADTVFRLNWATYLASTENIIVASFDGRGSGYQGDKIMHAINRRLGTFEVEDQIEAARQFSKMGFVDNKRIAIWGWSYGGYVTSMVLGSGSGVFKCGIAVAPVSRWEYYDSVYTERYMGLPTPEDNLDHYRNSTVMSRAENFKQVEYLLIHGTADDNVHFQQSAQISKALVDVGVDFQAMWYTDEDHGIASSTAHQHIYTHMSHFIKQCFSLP

As usually defined, the IC50 is the concentration that gives 50% inhibition. As to `O=C(CNC12CC3CC(CC(C3)C1)C2)Nc1ccc(Cl)cc1` [Compound 112], in assay [1], the “DPP-4 enzyme inhibition activity, in words” value is on record as “high DPP-4 inhibition” and the “% Inhibition @ 100 nM” value was 61.82%. The IC50 in assay [1] (setting [5]) was found to be 7.41 nM. The IC50 in assay [1] (Table 6) was determined as 7.41 nM. Also, in assay [2], the “AUC % change from diabetic control” value is given as −16.99%; the “AUC Δ from diabetic control” value worked out at 8947 mg·min/dL; the “Relative potency to vildagliptin” value was 0.46; the “AUC of blood glucose in OGTT (X, mean)” value was 43708* mg · dL^−1 · min. For the same compound, the “R.P. to Vildagliptin (6 Days)” value in assay [2] is recorded as 0.79. For the same compound, in assay [3], the “Fasting blood glucose level, Day 1” value is given as 159.20 ± mg/dL; the “Fasting blood glucose level, Day 2” value was 114.40 ± mg/dL; the “Fasting blood glucose level, Day 3” value is listed as 84.40 ± mg/dL; the “Fasting blood glucose level, Day 4” value is 115.40 ± mg/dL. In assay [3], the “Fasting blood glucose level, Day 5” value is listed as 132.40 ± mg/dL and the “Fasting blood glucose level, Day 6” value is 122.00 ± mg/dL. In addition, the “R.P. to Vildagliptin (Single Dose)” value in assay [4] was determined as 1.14. Further, in assay [4] (single oral dose 50 mg/kg), the “AUC % change from diabetic control” value is on record as −37.78%; the “AUC Δ from diabetic control” value stood at 19295 mg·min/dL; the “AUC of blood glucose in OGTT (X, mean)” value was 31770* mg · dL^−1 · min.

As for `O=C(CNC12CC3CC(CC(C3)C1)C2)Nc1cccc(O)c1` [Compound 111], in assay [1], the “DPP-4 enzyme inhibition activity, in words” value was “much better performance” and the “% Inhibition @ 100 nM” value is on record as 79.63%. Besides, the IC50 in assay [1] (setting [5]) turned out to be 2.08 nM. Besides, the IC50 in assay [1] (Table 6) came out at 2.08 nM. In assay [2], the “AUC % change from diabetic control” value is −9.820%; the “AUC Δ from diabetic control” value was 6161 mg·min/dL; the “Relative potency to vildagliptin” value worked out at 0.27; the “AUC of blood glucose in OGTT (X, mean)” value was 47494 mg·min/dL. For the same compound, the “R.P. to Vildagliptin (6 Days)” value in assay [2] stood at 0.46. In assay [3], the “Fasting blood glucose level, Day 1” value came out at 171.00 mg/dL; the “Fasting blood glucose level, Day 2” value was 122.40 ± mg/dL; the “Fasting blood glucose level, Day 3” value is 74.80 ± mg/dL; the “Fasting blood glucose level, Day 4” value is reported as 153.00 ± mg/dL. In assay [3], the “Fasting blood glucose level, Day 5” value is recorded as 141.20 ± mg/dL and the “Fasting blood glucose level, Day 6” value is on record as 180.20 mg/dL. In addition, the “R.P. to Vildagliptin (Single Dose)” value in assay [4] came to 1.52. In assay [4] (single oral dose 50 mg/kg), the “AUC % change from diabetic control” value is on record as −50.39%; the “AUC Δ from diabetic control” value is 25735 mg·min/dL; the “AUC of blood glucose in OGTT (X, mean)” value is 25330* mg · dL^−1 · min.

On to `COC(=O)c1ccccc1NC(=O)CNC12CC3CC(CC(O)(C3)C1)C2` [Compound 16], for which, in assay [1], the “DPP-4 enzyme inhibition activity, in words” value was “weakened the enzyme inhibition activities” and the “% Inhibition @ 100 nM” value is 45.61%. Also, in assay [2], the “AUC % change from diabetic control” value is on record as −52.53%; the “AUC Δ from diabetic control” value is 28183 mg·min/dL; the “Relative potency to vildagliptin” value is listed as 1.45; the “AUC of blood glucose in OGTT (X, mean)” value is 24472* mg · dL^−1 · min. In addition, in assay [3], the “Fasting blood glucose level, Day 1” value is reported as 174.00 mg/dL; the “Fasting blood glucose level, Day 2” value is on record as 93.80 ± mg/dL; the “Fasting blood glucose level, Day 3” value is listed as 158.40 ± mg/dL; the “Fasting blood glucose level, Day 4” value is reported as 127.40 ± mg/dL. Also, in assay [3], the “Fasting blood glucose level, Day 5” value is listed as 171.00 ± mg/dL and the “Fasting blood glucose level, Day 6” value is reported as 107.60 ± mg/dL. Also, in assay [4] (single oral dose 50 mg/kg), the “AUC % change from diabetic control” value is reported as −39.51%; the “AUC Δ from diabetic control” value came to 20179 mg·min/dL; the “AUC of blood glucose in OGTT (X, mean)” value is 30886* mg · dL^−1 · min. Also, the “Relative potency to vildagliptin” value in assay [4] (single oral dose 50 mg/kg, OGTT AUC) is 1.19.

Turning to `O=C(CNC12CC3CC(CC(O)(C3)C1)C2)Nc1cccc(C(F)(F)F)c1` [Compound 15], in assay [1], the “DPP-4 enzyme inhibition activity, in words” value is listed as “did not show good activity; also recorded: generally weak”. For the same compound, the IC50 in assay [1] (setting [5]) was 116 nM. In addition, the IC50 in assay [1] (Table 6) was greater than 100 nM. For the same compound, the “% Inhibition (values marked *: inhibition at 1000 nM)” value in assay [1] (compound at 1000 nM) is 97.81* %. Besides, in assay [2], the “AUC % change from diabetic control” value is reported as −26.07%; the “AUC Δ from diabetic control” value was found to be 13729 mg·min/dL; the “Relative potency to vildagliptin” value is 0.72; the “AUC of blood glucose in OGTT (X, mean)” value is given as 38926* mg · dL^−1 · min. Further, the “R.P. to Vildagliptin (6 Days)” value in assay [2] amounted to 0.72. Also, in assay [3], the “Fasting blood glucose level, Day 1” value is listed as 167.20 ± mg/dL; the “Fasting blood glucose level, Day 2” value is given as 87.80 ± mg/dL; the “Fasting blood glucose level, Day 3” value is on record as 177.60 ± mg/dL; the “Fasting blood glucose level, Day 4” value is listed as 166.80 ± mg/dL. In addition, in assay [3], the “Fasting blood glucose level, Day 5” value is reported as 175.80 ± mg/dL and the “Fasting blood glucose level, Day 6” value stood at 161.80 mg/dL. The “R.P. to Vildagliptin (Single Dose)” value in assay [4] was determined as 1.18. For the same compound, in assay [4] (single oral dose 50 mg/kg), the “AUC % change from diabetic control” value is −39.13%; the “AUC Δ from diabetic control” value was 19985 mg·min/dL; the “AUC of blood glucose in OGTT (X, mean)” value is listed as 31080* mg · dL^−1 · min.

On to `N#Cc1ccc(NC(=O)CNC23CC4CC(CC(C4)C2)C3)cc1` [Compound 118], for which, in assay [1], the “DPP-4 enzyme inhibition activity, in words” value is listed as “high affinity towards the enzyme; also recorded: high DPP-4 inhibition” and the “% Inhibition @ 100 nM” value amounted to 81.14%. For the same compound, the IC50 in assay [1] (setting [5]) was 6.25 nM. In addition, the IC50 in assay [1] (Table 6) worked out at 6.25 nM. Also, in assay [2], the “AUC % change from diabetic control” value is on record as −54.25%; the “AUC Δ from diabetic control” value turned out to be 28569 mg·min/dL; the “Relative potency to vildagliptin” value is given as 1.50; the “AUC of blood glucose in OGTT (X, mean)” value is 24086* mg · dL^−1 · min. Further, the “R.P. to Vildagliptin (6 Days)” value in assay [2] was 0.64. In assay [3], the “Fasting blood glucose level, Day 1” value is reported as 151.00 ± mg/dL; the “Fasting blood glucose level, Day 2” value is on record as 124.00 ± mg/dL; the “Fasting blood glucose level, Day 3” value is on record as 117.80 ± mg/dL; the “Fasting blood glucose level, Day 4” value is given as 141.00 ± mg/dL. In addition, in assay [3], the “Fasting blood glucose level, Day 5” value is 140.50 ± mg/dL and the “Fasting blood glucose level, Day 6” value is listed as 151.30 ± mg/dL. Also, the “R.P. to Vildagliptin (Single Dose)” value in assay [4] was 1.33. For the same compound, in assay [4] (single oral dose 50 mg/kg), the “AUC % change from diabetic control” value is −44.22%; the “AUC Δ from diabetic control” value turned out to be 22581 mg·min/dL; the “AUC of blood glucose in OGTT (X, mean)” value is 28484* mg · dL^−1 · min.

For the origin of these results see patent US10683267B1, “Antidiabetic compounds” (King Abdulaziz University, priority 2019, dated 2020).
